Legend:
[1] = biological target: N-methyl-D-aspartate (NMDA) receptor, MK-801 binding site; assay: radioligand displacement of [3H]-MK801; conditions: read-out: IC50 (μM) ^a; MK-801 channel site
[2] = biological target: N-methyl-D-aspartate (NMDA) receptor, MK-801 binding site; assay: radioligand displacement of [3H]-MK801; conditions: read-out: Ki (μM) ^a; MK-801 channel site

Row | Molecule | IC50 [1] [µM] | Ki [2] [µM]
1 | N[C@@]1(c2ccccc2Cl)C[C@@H](O)CCC1=O [10a, (2R,4S)-HNK] | > 100 | > 100
2 | N[C@]1(c2ccccc2Cl)CCC=CC1=O [3b, (S)-DHNK] | 42 | 29.7
3 | N[C@@]1(c2ccccc2Cl)CC[C@@H](O)CC1=O [8a, (2R,5R)-HNK] | > 100 | > 100
4 | N[C@@]1(c2ccccc2Cl)CC[C@H](O)CC1=O [9a, (2R,5S)-HNK] | > 100 | > 100
5 | (+)-MK-801 [reference compound] | 0.00493 | 0.00348
6 | N[C@@]1(c2ccccc2Cl)C[C@H](O)CCC1=O [11a, (2R,4R)-HNK] | > 100 | > 100
7 | N[C@]1(c2ccccc2Cl)C[C@H](O)CCC1=O [10b, (2S,4R)-HNK] | > 100 | > 100
8 | N[C@@]1(c2ccccc2Cl)CCC=CC1=O [3a, (R)-DHNK] | 59.7 | 42.1
9 | N[C@@]1(c2ccccc2Cl)CCC[C@H](O)C1=O [4a, (2R,6S)-HNK] | > 100 | > 100
10 | N[C@]1(c2ccccc2Cl)CC[C@H](O)CC1=O [8b, (2S,5S)-HNK] | > 100 | > 100
11 | N[C@]1(c2ccccc2Cl)C[C@@H](O)CCC1=O [11b, (2S,4S)-HNK] | > 100 | > 100
12 | N[C@]1(c2ccccc2Cl)CC[C@@H](O)CC1=O [9b, (2S,5R)-HNK] | > 100 | > 100
13 | N[C@@]1(c2ccccc2Cl)CCC[C@@H](O)C1=O [7a, (2R,6R)-HNK] | > 100 | > 100
14 | N[C@]1(c2ccccc2Cl)CCC[C@@H](O)C1=O [4b, (2S,6R)-HNK] | > 100 | > 100
15 | CNC1(c2ccccc2Cl)CCCCC1=O (racemic) [compound 1, (R,S)-ketamine] | 0.35 | 0.25
16 | N[C@]1(c2ccccc2Cl)CCC[C@H](O)C1=O [7b, (2S,6S)-HNK] | 10.4 | 7.34
